Results published in US4616007A, “Heterocyclthio compounds, process for their manufacture, pharmaceutical preparations that contain these compounds, and the use of the latter” (Ciba-Geigy Corporation, priority 1982, dated 1986).

Key:
Escherichia coli 205 = experiment: in vitro antibacterial activity (MIC); type: cell-based
[1] = system: Staphylococcus aureus 10 B; experiment: in vitro antibacterial activity (MIC); type: cell-based
[2] = system: Bacteroides fragilis L 01; experiment: in vitro antibacterial activity (MIC); type: cell-based; settings: L01
[3] = system: Staphylococcus aureus 2999i+p+; experiment: in vitro antibacterial activity (MIC); type: cell-based
[4] = system: Streptococcus faecalis D 3; experiment: in vitro antibacterial activity (MIC); type: cell-based; settings: Enterococcus faecalis, D3
[5] = system: Streptococcus pneumoniae III/84; experiment: in vitro antibacterial activity (MIC); type: cell-based
[6] = system: Clostridium perfringens 194; experiment: microbe, parasite or virus in culture; type: cell-based
[7] = system: Staphylococcus aureus 10 B; experiment: in vivo systemic infection of mice
From the text: (§1) The compounds of the formula I have valuable pharmacological properties, or can be used as intermediates for the manufacture of such compounds having valuable pharmacological properties. Compounds of the formula I in which R1 represents hydrogen or methyl, R2 represents hydroxy, R3 represents carboxy, or an esterified carboxy group that can be cleaved under physiological conditions, and R4 has the meaning given under formula I, and pharmacologically acceptable salts of such compounds having salt-forming groups have anti-bacterial activity. For example, they are effective in vitro against gram-positive and gram-negative cocci, for example Staphylococcus aureus, Streptococcus pyogenes, Streptococcus pneumoniae, and Streptococcus faecalis, and against gram-negative rod-shaped bacilli, such as Enterobacteriaceae, Haemophilus influenzae and Pseudomonas aeruginosa, and anaerobes, for example Bacteroides sp., in minimum concentrations of from approximately 0.02 to approximately 64 μg/ml. In vivo, in the case of systemic infection of mice, for example by Staphylococcus aureus or Streptococcus pyogenes, on subcutaneous or oral administration of compounds of the invention ED50 values of from approximately 8.5 to approximately 100 mg/kg result.
(§2) In vivo in the systemic infection of mice, the following activity is found: […]

[8] = system: Streptococcus pyogenes Aronson; experiment: in vivo systemic infection of mice
From the text: as §1, §2

Escherichia coli 2018 [9] = experiment: in vivo systemic infection of mice
From the text: as §1, §2

Proteus rettgeri 856 = experiment: in vitro antibacterial activity (MIC); type: cell-based; settings: Providencia rettgeri
Proteus morganii 2359 = experiment: in vitro antibacterial activity (MIC); type: cell-based; settings: Morganella morganii
Proteus morganii 1518 = experiment: in vitro antibacterial activity (MIC); type: cell-based; settings: Morganella morganii
[10] = system: Enterobacter cloacae P 99; experiment: in vitro antibacterial activity (MIC); type: cell-based; settings: P99
[11] = system: Escherichia coli 205 R+TEM; experiment: in vitro antibacterial activity (MIC); type: cell-based
Escherichia coli 16 = experiment: in vitro antibacterial activity (MIC); type: cell-based
[12] = system: Haemophilus influenzae NCTC 4560; experiment: in vitro antibacterial activity (MIC); type: cell-based; settings: NCTC4560
Serratia marcescens 344 = experiment: in vitro antibacterial activity (MIC); type: cell-based
Proteus mirabilis 1219 = experiment: in vitro antibacterial activity (MIC); type: cell-based
[13] = system: Streptococcus pyogenes Aronson; experiment: in vitro antibacterial activity (MIC); type: cell-based
[14] = system: Pseudomonas aeruginosa K 799/61; experiment: in vitro antibacterial activity (MIC); type: cell-based; settings: K799/61
Escherichia coli UB 1005 = experiment: in vitro antibacterial activity (MIC); type: cell-based; settings: UB1005
From the text: as §1
(§3) For example, in vitro, sodium (5R,6S)-2-[3-(1-methyltetrazol-5-ylthio)-propyl]-6-hydroxymethyl-2-penem-3-carboxylate (compound 1) and sodium (5R,6S)-2-[3-(1-dimethylaminoethyltetrazol-5-ylthio)-propyl]-6-hydroxymethyl-2-penem-3-carboxylate (compound 2) and sodium (5R,6S)-2-[3-(1-methyltetrazol-5-ylthio)-ethyl-6-hydroxymethyl-2-penem-3-carboxylate (compound 3), have the following activity: […]

Escherichia coli DC 2 = experiment: in vitro antibacterial activity (MIC); type: cell-based; settings: DC2
From the text: as §1, §3

[15] = system: Enterobacter cloacae ATCC 13047; experiment: in vitro antibacterial activity (MIC); type: cell-based; settings: ATCC13047
[16] = system: Klebsiella pneumoniae 327; experiment: in vitro antibacterial activity (MIC); type: cell-based
Proteus mirabilis 774 = experiment: in vitro antibacterial activity (MIC); type: cell-based
[17] = system: Pseudomonas aeruginosa ATCC 12055; experiment: in vitro antibacterial activity (MIC); type: cell-based; settings: ATCC12055
[18] = system: Neisseria meningitidis 1316; experiment: in vitro antibacterial activity (MIC); type: cell-based
[19] = system: Neisseria gonorrhoeae 1317-4; experiment: in vitro antibacterial activity (MIC); type: cell-based; settings: 13174
[20] = system: Staphylococcus aureus Wood 46; experiment: in vitro antibacterial activity (MIC); type: cell-based; settings: WOOD46
From the text: as §1, §3

Escherichia coli B-1385 = experiment: in vitro antibacterial activity (MIC); type: cell-based; settings: B1385
From the text: as §1, §3

Escherichia coli 2018 [21] = experiment: in vitro antibacterial activity (MIC); type: cell-based
From the text: as §1, §3

[22] = system: Staphylococcus aureus A 124; experiment: in vitro antibacterial activity (MIC); type: cell-based; settings: A124
From the text: as §1, §3

SMILES | MIC (Escherichia coli 205) [µg/mL] | MIC [1] [µg/mL] | MIC [2] [µg/mL] | MIC [3] [µg/mL] | MIC [4] [µg/mL] | MIC [5] [µg/mL] | MIC [6] [µg/mL] | ED50 ([8]; po) [mg/kg] | ED50 ([8]; sc) [mg/kg] | MIC (Proteus rettgeri 856) [µg/mL] | MIC (Proteus morganii 2359) [µg/mL] | MIC (Proteus morganii 1518) [µg/mL] | MIC [10] [µg/mL] | MIC [11] [µg/mL] | MIC (Escherichia coli 16) [µg/mL] | MIC [12] [µg/mL] | MIC (Serratia marcescens 344) [µg/mL] | MIC (Proteus mirabilis 1219) [µg/mL] | MIC [13] [µg/mL] | MIC [14] [µg/mL] | further results
Cn1nnnc1SCCCC1=C(C(=O)[O-])N2C(=O)[C@H](CO)[C@H]2S1.[Na+] [Compound 1, sodium (5R,6S)-2-[3-(1-methyltetrazol-5-ylthio)-propyl]-6-hydroxymethyl-2-penem-3-carboxylate] | 2 | 0.05 | 0.5 | 0.05 | 64 | 0.02 | 0.02 | ~30 | 8.5 | 4 | 2 | 4 | 32 | 4 | 16 | 0.5 | 16 | 8 | 0.1 | 2 | ED50 ([7]; po): 90 mg/kg; ED50 ([7]; sc): 60 mg/kg; ED50 (Escherichia coli 2018 [9]; Escherichia coli, 2018, po, p.o.): 90 mg/kg; ED50 (Escherichia coli 2018 [9]; Escherichia coli, 2018, sc, s.c.): 30 to 100 mg/kg; MIC (Escherichia coli UB 1005): 4 µg/mL; MIC (Escherichia coli DC 2): 2 µg/mL; MIC [15]: 64 µg/mL; MIC [16]: 4 µg/mL; MIC (Proteus mirabilis 774): 2 µg/mL; MIC [17]: > 128 µg/mL
Cn1nnnc1SCCC1=C(C(=O)[O-])N2C(=O)[C@H](CO)[C@H]2S1.[Na+] [Compound 3, Sodium (5R,6S)-2-[2-(1-Methyltetrazol-5-ylthio)-ethyl]-6-hydroxymethyl-2-penem-3-carboxylate] | 1 | 0.05 | 0.2 | 0.05 | 32 | 0.02 | 0.1 | 30 | 12 | 4 | 2 | 4 | 16 | 2 | 4 | 2 | 16 | 4 | 0.1 | 1 | MIC [18]: 0.02 µg/mL; MIC [19]: 0.01 µg/mL; MIC (Escherichia coli UB 1005): 2 µg/mL; MIC [20]: 0.05 µg/mL; MIC (Escherichia coli B-1385): 2 µg/mL; MIC (Escherichia coli DC 2): 2 µg/mL; MIC (Escherichia coli 2018 [21]): 0.5 µg/mL; MIC [22]: 0.5 µg/mL; MIC [15]: 32 µg/mL; MIC [16]: 2 µg/mL; MIC (Proteus mirabilis 774): 2 µg/mL; MIC [17]: > 128 µg/mL
